Values quoted from earlier work, collected in patent publication US20150335678A1, “METHOD OF ACTIVATING STEM CELLS IN AN ANIMAL AND THE USE OF CHLORINE DIOXIDE FOR PREPARING MEDICINES FOR ACTIVATING STEM CELLS IN AN ANIMAL” (priority 2012, published 2015).
Where two headings read alike, the source gives them in different places.

How the values were obtained:
rat = conditions: cited from earlier work
mouse = mouse per os; cited from earlier work

Molecule: [Na+].[O-][Cl+][O-] [NaClO2]
- accumulative toxicity classification of aqueous solution (rat; rat, in vivo): non-obvious accumulative toxic
- toxicity classification of aqueous solution (rat; rat, in vivo): actually non-toxic

Molecule: [Na+].[O-][Cl+2]([O-])[O-] [NaClO3]
- accumulative toxicity classification of aqueous solution (rat; ClO2 276.5 mg/L, NaClO2 200 mg/L, NaClO3): non-obvious accumulative toxic
- toxicity classification of aqueous solution (rat; ClO2 276.5 mg/L, NaClO2 and NaClO3 200 mg/L, ClO2 mixed solution total concentration 553 mg/L): actually non-toxic

Molecule: stable chlorine dioxide
- LD50 (mouse): > 10000 mg/kg
